# From PMC6646369, “A new bioavailable fenretinide formulation with antiproliferative, antimetabolic, and cytotoxic effects on solid tumors” (Cell Death & Disease, 2019)
# Legend:
# [1] = Aqueous solubility of fenretinide (saturation in water, spectrophotometric at 360 nm); format: physicochemical; details: water at 25 °C; read-out: Solubility in H2O
# Procedure: The first step of NanoFEN preparation involved fenretinide salification to raise its aqueous solubility to the extent required for complexation with cyclodextrins. […] The complex was analyzed by ^1H-NMR to detect the presence of chemical shift changes with respect to the free drug as indicators of fenretinide inclusion into the cyclodextrin hydrophobic cavity. […] The ^1H-NMR spectra were recorded by an Inova 600 MHz High Resolution NMR Spectrometer. The amount of fenretinide incorporated into the complex was spectrophotometrically determined in solutions obtained by dissolving known amounts of the solid complex in a water:ethanol (1:1, v-v) mixture with the aim to dissociate the drug from the complex and maintain its solubilization in the aqueous phase in the presence of ethanol. The hydro-alcoholic solutions were analyzed for their fenretinide content at the maximum wavelength of the fenretinide absorption (360 nm). The aqueous solubility of fenretinide complexed with 2-hydroxypropyl-β-cyclodextrin was measured in comparison with the pure drug. […] After filtration the saturated solutions were spectrophotometrically analysed at 360 nm for their fenretinide content.
# [2] = Plasma pharmacokinetics of fenretinide in mice; format: in vivo, CD1 female mice
# Procedure: The experiments were performed in CD1 female mice, 7 weeks of age, (body weight 25 ± 2 g) obtained from Envigo RMS SrL (Udine, Italy). Mice were maintained under specific-pathogen-free conditions with constant temperature and humidity, according to the institutional guidelines of the Istituto Superiore di Sanità Animal Care Committee. Animal experimentation was conducted in conformance with the following laws, regulations, and policies governing the care and use of laboratory animals: Italian Governing Law (D. l. 26/2014; Authorization n.19/2008-A issued March 6, 2008 by the Ministry of Health). The pharmacokinetics of NanoFEN, administered by oral or intravenous route, was investigated in mice receiving the formulation at doses corresponding to 5 mg/kg of fenretinide. The intravenous administration was carried out by injection in the tail vein of an intravenous bolus of NanoFEN dissolved in water or PureFEN suspended in a mixture of ethanol 10 % in saline as a comparison. For the oral administration the mice were gavaged the with NanoFEN dissolved in water or with the reconstituted content of the NCI capules, i.e., fenretinide (100 mg) in corn oil (704 mg) and Polysorbate 80 (60 mg) as a comparison. After the intravenous or oral treatments, a series of blood samples were taken at 15 and 30 min and at 1, 2, 4, 8, 10, 24 and 48 h. Blood was collected in heparinized tubes from the retro-orbital plexus of the mice under isoflurane anesthesia. To obtain plasma, blood samples were centrifuged at 4000 rpm for 10 min at 4 °C. The samples were stored at −20 °C until analysis. The total concentration of fenretinide in plasma of mice was determined according to a method previously described. Briefly, aliquot of 200 μl of each plasma sample was added to 400 μl of Acetonitrile (CH3CN) containing 125 μg/mL Butylated hydroxytoluene (BHT), and the mixture was vortexed and centrifuged to pellet the precipitated proteins. The recovered supernatants were analysed on a liquid chromatograph (Perkin-Elmer, Norwall, CT) fitted with a C18 (50 mm × 2.0 mm, 5 μm) reverse-phase column and a C18 precolumn (Perkin-Elmer, Milan, Italy). The mobile phase consisted of CH3CN:H2O:CH3COOH (75:2:2, v:v:v) delivered at a flow rate of 2 mL/min. Detection was carried out with a Perkin-Elmer LC95 absorbance detector at 362 nm. N-(4-ethoxyphenyl)-retinamide (EPR) was used as internal standard. For the quantitative evaluation, reference standard curves were set up in control mouse plasma with different known amounts of NanoFEN or PureFEN. The measured fenretinide concentration-vs-time data were elaborated by non-compartmental analysis (WinNonLin software v3) to obtain the main pharmacokinetic parameters of NanoFEN.
# [3] = mouse, iv, CD1 female mice, 5 mg/Kg fenretinide, plasma
# [4] = mouse, plasma, iv, CD1 female mice, 5 mg/Kg fenretinide
compound,measurement,setting,value
"CC1=C(/C=C/C(C)=C/C=C/C(C)=C/C(=O)Nc2ccc(O)cc2)C(C)(C)CCC1 [PureFEN, N-(4-Hydroxyphenyl) retinamide]",solubility at 12 h,[1],1.71 µg/mL
same,HL,"[2]; CD1 female mice, 5 mg/Kg fenretinide, i.v.",7.87 h
same,AUC,"[2]; female, CD1, mouse, iv, Fig. 1e, single administration of 5 mg/kg, plasma",6570 ng·h/mL
same,AUC(0-inf),[2]; [3],6570 ng·h/mL
same,AUC(0-t),[2]; [3],6420 ng·h/mL
same,Cmax,[2]; [3],4130 ng/mL
same,Vd,[2]; [4],6.52 L/kg
same,clearance,[2]; [4],9.57 mL/min/kg
same,k el,"[2]; mouse, plasma, iv, CD1 female mice, 5 mg/Kg fenretinide, i.v., read-out: Ke (converted)",2.44e-05 s⁻¹
